The source of these data is patent US20210015098A1, “MOLECULES HAVING PESTICIDAL UTILITY, AND INTERMEDIATES, COMPOSITIONS, AND PROCESSES, RELATED THERETO” (DOW AGROSCIENCES LLC, priority 2018, published 2021).

Holding throughout (format): in vivo
In data set [1] the test system is Yellow Fever Mosquito (Aedes aegypti, AEDSAE). Particulars: about 1 day-old larvae, 96-well plate, room temperature, 3 days. As for the experimental part: Certain molecules disclosed in this document were tested against YFM using procedures described in the following paragraph. In the reporting of the results, the “GPA & YFM Rating Table” was used (See Table Section).
Master plates containing 400 μg of a molecule dissolved in 100 μL of dimethyl sulfoxide (DMSO) (equivalent to a 4000 ppm solution) are used. A master plate of assembled molecules contains 15 μL per well. To this plate, 135 μL of a 90:10 water/acetone mixture is added to each well. A robot (Biomek® NXP Laboratory Automation Workstation) is programmed to dispense 15 μL aspirations from the master plate into an empty 96-well shallow plate (“daughter” plate). There are 6 reps (“daughter” plates) created per master. The created “daughter” plates are then immediately infested with YFM larvae.
The day before plates are to be treated, mosquito eggs are placed in Millipore water containing liver powder to begin hatching (4 g into 400 mL). After the “daughter” plates are created using the robot, they are infested with 220 μL of the liver powder/larval mosquito mixture (about 1 day-old larvae). After plates are infested with mosquito larvae, a non-evaporative lid is used to cover the plate to reduce drying. Plates are held at room temperature for 3 days prior to grading. After 3 days, each well is observed and scored based on mortality. The results are indicated in the table entitled “Table ABC: Biological Results” (See Table Section).

The test system of data set [2] is Cabbage Looper (Trichoplusia ni, TRIPNI). As to the kind of experiment: Bioassays on Cabbage Looper (CL), 128-well diet tray assay. The following applies: for mortality at 50 µg/cm2: 168 h, 50 μg/cm^2 on artificial diet, second instar larvae, 25° C., five to seven days, read-out: CL % Control (or Mortality) rating; for pest or weed control at 50 µg/cm2: Cabbage Looper, Table ABC Biological Results, read-out: CL (rating). The method, then:
(§1) Certain molecules disclosed in this document were tested against BAW and CL using procedures described in the following examples. In the reporting of the results, the “BAW & CL Rating Table” was used (See Table Section).
Bioassays on CL were conducted using a 128-well diet tray assay. One to five second instar CL larvae were placed in each well (3 mL) of the diet tray that had been previously filled with 1 mL of artificial diet to which 50 μg/cm^2 of the test molecule (dissolved in 50 μL of 90:10 acetone-water mixture) had been applied (to each of eight wells) and then allowed to dry. Trays were covered with a clear self-adhesive cover, vented to allow gas exchange, and held at 25° C., 14:10 light-dark for five to seven days. Percent mortality was recorded for the larvae in each well; activity in the eight wells was then averaged. The results are indicated in the table entitled “Table ABC: Biological Results” (See Table Section).

Data set [3] deals with Beet Armyworm (Spodoptera exigua, LAPHEG). As to the kind of experiment: Bioassays on Beet Armyworm (BAW), 128-well diet tray assay. The following applies: for mortality at 50 µg/cm2: 168 h, 50 μg/cm^2 on artificial diet, second instar larvae, 25° C., five to seven days, read-out: BAW % Control (or Mortality) rating; for pest or weed control at 50 µg/cm2: Beet Armyworm, Table ABC Biological Results, read-out: BAW (rating). As for the experimental part: as §1
Bioassays on BAW were conducted using a 128-well diet tray assay. One to five second instar BAW larvae were placed in each well (3 mL) of the diet tray that had been previously filled with 1 mL of artificial diet to which 50 μg/cm^2 of the test molecule (dissolved in 50 μL of 90:10 acetone-water mixture) had been applied (to each of eight wells) and then allowed to dry. Trays were covered with a clear self-adhesive cover, vented to allow gas exchange, and held at 25° C., 14:10 light-dark for five to seven days. Percent mortality was recorded for the larvae in each well; activity in the eight wells was then averaged. The results are indicated in the table entitled “Table ABC: Biological Results” (See Table Section).

For `Nc1c(F)ccc(NC(=O)c2cc(NC(=O)[C@H]3[C@H](c4cc(C(F)(F)F)cc(C(F)(F)F)c4)C3(Cl)Cl)ccc2Cl)c1F` (relative stereo) [DP7, trans-N-(3-Amino-2,4-difluorophenyl)-5-(3-(3,5-bis(trifluoromethyl)phenyl)-2,2-dichlorocyclopropane-1-carboxamido)-2-chlorobenzamide], the “YFM % Control (or Mortality) rating” value in data set [1] was “A (80-100)”. Also, the mortality at 50 µg/cm2 in data set [2] and in data set [3] was 50 to 100% throughout.

For the molecule `CC(C)(C)OC(=O)N(C(=O)OC(C)(C)C)c1c(F)ccc(NC(=O)c2cc(NC(=O)[C@H]3[C@H](c4cc(Cl)c(Cl)c(Cl)c4)C3(Cl)Cl)ccc2Cl)c1F` [DP1, tert-butyl-N-((tert-butoxy)carbonyl)-N-(3-(2-chloro-5-((1R,3R)-2,2-dichloro-3-(3,4,5-trichlorophenyl)cyclopropane-1-carboxamido)benzamido)-2,6-difluorophenyl)carbamate], the “YFM % Control (or Mortality) rating” value in data set [1] is recorded as “D (No activity noticed in this bioassay)”. Besides, the values for the mortality at 50 µg/cm2 in data set [2] and in data set [3] were 0% and 0 to 50%, respectively.

`O=C(CS(=O)(=O)C(F)(F)F)Nc1c(F)ccc(NC(=O)c2cc(NC(=O)[C@H]3[C@H](c4ccc(Cl)c(Cl)c4)C3(Cl)Cl)ccc2Cl)c1F` [F38, 2-Chloro-5-((1R,3R)-2,2-dichloro-3-(3,4-dichlorophenyl)cyclopropane-1-carboxamido)-N-(2,4-difluoro-3-(2-((trifluoromethyl)sulfonyl)acetamido)phenyl)benzamide]: the pest or weed control at 50 µg/cm2 in data set [2] and in data set [3] was 50 to 100% in each case.

As to `CC(C(=O)Nc1c(F)ccc(NC(=O)c2cc(NC(=O)[C@H]3[C@H](c4ccc(F)c(Cl)c4)C3(Cl)Cl)ccc2Cl)c1F)S(=O)(=O)C(F)(F)F` (stereo partly drawn) [F39, 2-Chloro-5-((1R,3R)-2,2-dichloro-3-(3-chloro-4-fluorophenyl)cyclopropane-1-carboxamido)-N-(2,4-difluoro-3-(2-((trif1uoromethyl)sulfonyl)propanamido)phenyl)benzamide], the pest or weed control at 50 µg/cm2 in data set [2] and in data set [3] was 50 to 100% throughout.

For the molecule `O=C(CS(=O)(=O)C(F)(F)F)Nc1c(F)ccc(NC(=O)c2cc(NC(=O)[C@H]3[C@H](c4ccc(F)c(Cl)c4)C3(Cl)Cl)ccc2Cl)c1F` [F40], the pest or weed control at 50 µg/cm2 in data set [2] and in data set [3] was 50 to 100% throughout.

As for `O=C(CS(=O)(=O)CC(F)(F)F)Nc1c(F)ccc(NC(=O)c2cc(NC(=O)[C@H]3[C@H](c4cc(Cl)c(Cl)c(Cl)c4)C3(Cl)Cl)ccc2Cl)c1F` [F41, 2-Chloro-5-((1R,3R)-2,2-dichloro-3-(3,4,5-trichlorophenyl)cyclopropane-1-carboxamido)-N-(2,4-difluoro-3-(2-((2,2,2-trifluoroethyl)sulfonyl)acetamido)phenyl)benzamide], the pest or weed control at 50 µg/cm2 in data set [2] and in data set [3] was 50 to 100% throughout.

As for `O=C(CS(=O)(=O)CC(F)(F)F)Nc1c(F)ccc(NC(=O)c2cc(NC(=O)[C@H]3[C@H](c4ccc(Cl)c(Cl)c4)C3(Cl)Cl)ccc2Cl)c1F` [F42, 2-chloro-5-((1R,3R)-2,2-dichloro-3-(3,4-dichlorophenyl)cyclopropane-1-carboxamido)-N-(2,4-difluoro-3-(2-((2,2,2-trifluoroethyl)sulfonyl)acetamido)phenyl)benzamide], the pest or weed control at 50 µg/cm2 in data set [2] and in data set [3] was 50 to 100% each time.

As to `O=C(CS(=O)(=O)CC(F)(F)F)Nc1c(F)ccc(NC(=O)c2cc(NC(=O)[C@H]3[C@H](c4ccc(F)c(Cl)c4)C3(Cl)Cl)ccc2Cl)c1F` [F43, 2-Chloro-5-((1R,3R)-2,2-dichloro-3-(3-chloro-4-fluorophenyl)cyclopropane-1-carboxamido)-N-(2,4-difluoro-3-(2-((2,2,2-trifluoroethyl)sulfonyl)acetamido)phenyl)benzamide], the pest or weed control at 50 µg/cm2 in data set [2] and in data set [3] was 50 to 100% each time.

Turning to `O=C(CS(=O)(=O)CC(F)(F)F)Nc1c(F)ccc(NC(=O)c2cc(NC(=O)[C@H]3[C@H](c4ccc(F)c(C(F)(F)F)c4)C3(Cl)Cl)ccc2Cl)c1F` [F44, 2-Chloro-5-((1R,3R)-2,2-dichloro-3-(4-fluoro-3-(trifluoromethyl)phenyl)cyclopropane-1-carboxamido)-N-(2,4-difluoro-3-(2-((2,22-trifluoroethyl)sulfonyl)acetamido)phenyl)benzamide], the pest or weed control at 50 µg/cm2 in data set [2] and in data set [3] was 50 to 100% in each case.

As to `CCS(=O)(=O)C(C)C(=O)Nc1c(F)ccc(NC(=O)c2cc(NC(=O)[C@H]3[C@H](c4ccc(F)c(C(F)(F)F)c4)C3(Cl)Cl)ccc2Cl)c1F` (stereo partly drawn) [F45, 2-chloro-5-((R,3R)-2,2-dichloro-3-(4-fluoro-3-(trifluoromethyl)phenyl)cyclopropane-1-carboxamido)-N-(3-(2-(ethylsulfonyl)propanamido)-2,4-difluorophenyl)benzamide], the pest or weed control at 50 µg/cm2 in data set [2] and in data set [3] was 50 to 100% throughout.

With `O=C(CSC(F)(F)F)Nc1c(F)ccc(NC(=O)c2cc(NC(=O)[C@H]3[C@H](c4cccc(C(F)(F)F)c4)C3(Cl)Cl)ccc2Cl)c1F` [F47, 2-Chloro-5-((1R,3R)-2,2-dichloro-3-(3-(trifluoromethyl)phenyl)cyclopropane-1-carboxamido)-N-(2,4-difluoro-3-(2-((trifluoromethyl)thio)acetamido)phenyl)benzamide], the pest or weed control at 50 µg/cm2 in data set [2] and in data set [3] was 50 to 100% throughout.

For the molecule `O=C(CSC(F)(F)F)Nc1c(F)ccc(NC(=O)c2cc(NC(=O)[C@H]3[C@H](c4cc(F)cc(C(F)(F)F)c4)C3(Cl)Cl)ccc2Cl)c1F` [F49, 2-Chloro-5-((1R,3R)-2,2-dichloro-3-(3-fluoro-5-(trifluoromethyl)phenyl)cyclopropane-1-carboxamido)-N-(2,4-difluoro-3-(2-((trifluoromethyl)thio)acetamido)phenyl)benzamide], the pest or weed control at 50 µg/cm2 in data set [2] and in data set [3] was 50 to 100% in each case.

Consider `CSCC(=O)Nc1ccc(NC(=O)c2cc(NC(=O)[C@H]3[C@H](c4ccc(F)c(C(F)(F)F)c4)C3(Cl)Cl)ccc2Cl)c(F)c1` [F50, 2-Chloro-5-((1R,3R)-2,2-dichloro-3-(4-fluoro-3-(trifluoromethyl)phenyl)cyclopropane-1-carboxamido)-N-(2-fluoro-4-(2-(methylthio)acetamido)phenyl)benzamide], for which the pest or weed control at 50 µg/cm2 in data set [2] and in data set [3] was 50 to 100% in each case.

As to `O=C(CSC(F)(F)F)Nc1ccc(NC(=O)c2cc(NC(=O)[C@H]3[C@H](c4ccc(F)c(C(F)(F)F)c4)C3(Cl)Cl)ccc2Cl)c(F)c1` [F51, 2-Chloro-5-((1R,3R)-2,2-dichloro-3-(4-fluoro-3-(trifluoromethyl)phenyl)cyclopropane-1-carboxamido)-N-(2-fluoro-4-(2-((trifluoromethyl)thio)acetamido)phenyl)benzamide], the pest or weed control at 50 µg/cm2 in data set [2] and in data set [3] was 50 to 100% each time.

`O=C(CSCC(F)(F)F)Nc1ccc(NC(=O)c2cc(NC(=O)[C@H]3[C@H](c4ccc(F)c(C(F)(F)F)c4)C3(Cl)Cl)ccc2Cl)c(F)c1` [F52, 2-Chloro-5-((1R,3R)-2,2-dichloro-3-(4-fluoro-3-(trifluoromethyl)phenyl)cyclopropane-1-carboxamido)-N-(2-fluoro-4-(2-((2,2,2-trifluoroethyl)thio)acetamido)phenyl)benzamide]: the pest or weed control at 50 µg/cm2 in data set [2] and in data set [3] was 50 to 100% throughout.
